# Measured values from paper PMC9196629, “Synthesis, Characterization and Antitumor Mechanism Investigation of Heterometallic Ru(Ⅱ)-Re(Ⅰ) Complexes” (Frontiers in Chemistry, 2022).
# Where “and” joins values, the source holds several entries; their conditions need not be identical. Equal values may be shown once.
# System: HeLa cells
# Test: Cell cycle analysis by flow cytometry with PI staining
# Assay type: cell-based, human
# Conditions: 24 h; for S cell cycle population: control 14.4 ± 0.9; for G2/M cell cycle population: control 21.4 ± 0.7; for G0/G1 cell cycle population: control 64.2 ± 1.3
# From the text: Cell cycle arrest studies provide a good understanding of cell apoptosis induced by metal drugs ([Sadoughi et al., 2021]). To further clarify the mechanism of apoptosis induced by RuRe-1 and RuRe-2, we analyzed the cell cycle of HeLa cells treated with RuRe-1 and RuRe-2 by flow cytometry with PI staining. […] A corresponding decrease in cell content in G1 and G2 phases was observed.
# Cell cycle analysis. After HeLa cells were adhered to the 6-well plates, the medium was replaced with medium containing different concentrations of RuRe-1 and RuRe-2 for 24 h. Cells were collected and fixed for 24 h with pre-cooled 70% ethanol, then washed twice with PBS and finally stained with PI staining solution in a warm bath at 37 °C for 30 mins. The samples were detected by flow cytometry.
SMILES,S cell cycle population (6.2 μM) [%],G2/M cell cycle population (6.2 μM) [%],G0/G1 cell cycle population (6.2 μM) [%],S cell cycle population (9.3 μM) [%],G2/M cell cycle population (9.3 μM) [%],G0/G1 cell cycle population (9.3 μM) [%],S cell cycle population (12.4 μM),G2/M cell cycle population (12.4 μM) [%],G0/G1 cell cycle population (12.4 μM) [%],S cell cycle population (5.0 μM) [%],G2/M cell cycle population (5.0 μM) [%],G0/G1 cell cycle population (5.0 μM) [%],S cell cycle population (7.5 μM) [%],G2/M cell cycle population (7.5 μM) [%],G0/G1 cell cycle population (7.5 μM) [%],S cell cycle population (10.0 μM),G2/M cell cycle population (10.0 μM) [%],G0/G1 cell cycle population (10.0 μM) [%]
"F[P-](F)(F)(F)(F)F.F[P-](F)(F)(F)(F)F.F[P-](F)(F)(F)(F)F.[C-]#[O+].[C-]#[O+].[C-]#[O+].[Re+].[Ru+2].c1ccc(-c2ccccn2)nc1.c1ccc(-c2ccccn2)nc1.c1ccc(-c2ccnc3c2ccc2c(-c4ccccc4)ccnc23)cc1.c1cnc2c(c1)c1nc(-c3ccncc3)[nH]c1c1cccnc12 [RuRe-1, [Ru(bpy)2LRe(CO)3(DIP)](PF6)3]",12.5 ± 0.2,18.7 ± 1.3,68.8 ± 0.5,27.4 ± 0.9,16.1 ± 1.1,56.5 ± 1.1,33.8% and 33.8 ± 1.2%,14.5 ± 1.1,51.7 ± 0.9,–,–,–,–,–,–,–,–,–
"F[P-](F)(F)(F)(F)F.F[P-](F)(F)(F)(F)F.F[P-](F)(F)(F)(F)F.[C-]#[O+].[C-]#[O+].[C-]#[O+].[Re+].[Ru+2].c1ccc(-c2ccnc3c2ccc2c(-c4ccccc4)ccnc23)cc1.c1cnc2c(c1)c1nc(-c3ccncc3)[nH]c1c1cccnc12.c1cnc2c(c1)ccc1cccnc12.c1cnc2c(c1)ccc1cccnc12 [RuRe-2, [Ru(phen)2LRe(CO)3(DIP)](PF6)3]",–,–,–,–,–,–,–,–,–,16.8 ± 1.6,17.9 ± 1.4,65.3 ± 0.9,39.9 ± 1.5,7.4 ± 0.5,52.7 ± 1.3,40.0% and 40.0 ± 0.6%,7.6 ± 0.2,52.4 ± 1.0
